Converted amounts (≈) assume the structure as drawn.
Target: T1, glucocerebrosidase (Gcase) (Homo sapiens, UniProt P04062)
T1 construct: micellar solution containing 10 nM GCase and 100 nM saposin C (Enzo ALX-201-262-C050)
T1 sequence (P04062 40-536): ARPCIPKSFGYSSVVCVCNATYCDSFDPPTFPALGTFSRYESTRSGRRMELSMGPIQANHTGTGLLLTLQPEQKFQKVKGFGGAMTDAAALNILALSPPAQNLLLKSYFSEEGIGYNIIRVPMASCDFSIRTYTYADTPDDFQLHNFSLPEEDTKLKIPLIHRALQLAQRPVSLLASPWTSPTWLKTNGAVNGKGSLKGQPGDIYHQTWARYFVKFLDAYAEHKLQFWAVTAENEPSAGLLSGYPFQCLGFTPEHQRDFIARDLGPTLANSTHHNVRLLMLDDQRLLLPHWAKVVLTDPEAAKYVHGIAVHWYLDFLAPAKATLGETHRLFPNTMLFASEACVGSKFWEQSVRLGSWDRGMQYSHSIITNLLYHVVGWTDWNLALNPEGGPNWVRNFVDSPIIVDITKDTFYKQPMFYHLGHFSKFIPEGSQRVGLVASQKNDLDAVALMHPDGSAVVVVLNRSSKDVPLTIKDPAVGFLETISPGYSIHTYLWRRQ
Assay: Glucocerebrosidase (Gcase) activation assay, 4-methylumbelliferyl-beta-D-glucopyranoside substrate, with saposin C
Format: biochemical
Conditions: read-out: Percent Gcase Activation 0.1 μM Test Compound
Protocol: A 484 μL aliquot of a 1.0 mg/mL solution of phosphatidylserine (PS) (Sigma P7769) in chloroform was evaporated under a stream of nitrogen for 1 hour. The lipid film was dissolved over 4 minutes of vigorous vortexing in 40 mL of 176 mM K2HPO4/50 mM citric acid (pH 4.7) containing 7.5 μL of triton X-100, resulting in a mixed micellar preparation with a composition of 0.32 mM triton and 0.37 mol % PS. 4-Methylumbelliferyl-beta-D-glucopyranoside (ACROS-337025000) was dissolved in the micellar solution to a final concentration of 2 mM for use as the reaction substrate.
Test compounds were diluted to the desired concentrations with dimethylsulfoxide (DMSO) from 10 mM stocks, and 0.41 μL of the DMSO compound mixture was added to 100 μL of micellar solution containing 10 nM GCase and 100 nM saposin C (Enzo ALX-201-262-C050). Pre-incubation was allowed to occur for 30 minutes at room temperature, after which the reaction was initiated by combining 25 μL of substrate solution with 25 μL of compound/GCase/saposin mixture. The reaction proceeded for 15 minutes at room temperature and was stopped by adding 150 μL of 1M glycine, pH 12.5. The endpoint of the reaction was monitored by measuring fluorescence intensity (excitation: 365 nm; emission: 440 nm) on a SpectraMax i3 instrument (Molecular Devices). Test compounds were screened at 1.0 and 0.1 μM final concentration, and subsequent 8-point dose response curves were obtained using 3-fold dilutions from a maximum final concentration of 5 μM.

Row | Compound | activation at 0.1 µM
1 | CC(Cc1ccc(Cl)cc1)NC(=O)c1cnc2n(c1=O)CCS2 (stereo not drawn) | < 5%
2 | CCc1ccc(CCNC(=O)c2cnc3sccn3c2=O)cc1 | < 5%
3 | O=C(Nc1ccc2c(c1)CCC2)c1cnc2n(c1=O)CCS2 | < 5%
4 | O=C(NC1CCCCCC1)c1cnc2n(c1=O)CCS2 | < 5%
5 | CC(C)c1ccc(NC(=O)c2cnc3sccn3c2=O)nc1 | < 5%
6 | O=C(NC1CCCCC12CCCCO2)c1cnc2n(c1=O)CCS2 (stereo not drawn) | < 5%
7 | CCCCC1CCC(NC(=O)c2cnc3n(c2=O)CC(C)S3)CC1 (stereo not drawn) | < 5%
8 | C#Cc1ccc(NC(=O)c2cnc3n(c2=O)CCS3)cc1 | < 5%
9 | C[C@H](NC(=O)c1cnc2n(c1=O)CCS2)c1ccccc1 | 5 to 20%
10 | CC1CCC(NC(=O)c2cnc3n(c2=O)CCS3)CC1 (stereo not drawn) | < 5%
11 | O=C(NC1CCc2ccccc21)c1cnc2n(c1=O)CCS2 (stereo not drawn) | < 5%
12 | CCc1ccc(CNC(=O)c2cnc3sccn3c2=O)cc1 | < 5%
13 | O=C(Nc1ccc2c(c1)OCCO2)c1cnc2n(c1=O)CCS2 | < 5%
14 | O=C(NC1CCCc2ccccc21)c1cnc2n(c1=O)CCS2 (stereo not drawn) | < 5%
15 | CCCCCO[C@H]1CC[C@H](NC(=O)c2cnc3n(c2=O)CCS3)CC1 | < 5%
16 | CCC1CCC(NC(=O)c2cnc3sccn3c2=O)CC1 (stereo not drawn) | 5 to 20%
17 | O=C(NC1CCCC2(CCCCO2)C1)c1cnc2n(c1=O)CCS2 (stereo not drawn) | < 5%
18 | O=C(NC1CCC2(CCCCO2)CC1)c1cnc2n(c1=O)CCS2 (stereo not drawn) | < 5%

More lines, now with the values ahead:

Row | activation at 0.1 µM | Compound
19 | < 5% | Cc1cccc2ncc(C(=O)NC3CCOCC3)c(=O)n12
20 | < 5% | CC(C)c1ccc(NC(=O)c2cnc3sccn3c2=O)cn1
21 | < 5% | CCc1ccc(NC(=O)c2cnc3ccccn3c2=O)cc1
22 | < 5% | CCc1ccc(NC(=O)c2cnc3scc(C)n3c2=O)cc1
23 | 5 to 20% | Cc1cccc2ncc(C(=O)NC3CCC(c4ccccc4)CC3)c(=O)n12 (stereo not drawn)
24 | < 5% | Cc1cccc2ncc(C(=O)Nc3ccc(C4CCCCC4)cc3)c(=O)n12
25 | < 5% | Cc1cccc2ncc(C(=O)NC3CCc4ccccc4C3)c(=O)n12 (stereo not drawn)
26 | < 5% | Cc1cccc2ncc(C(=O)Nc3ccc(-n4ccnc4)cc3)c(=O)n12
27 | < 5% | Cc1cccc2ncc(C(=O)Nc3ccc4c(c3)CN(C)C4)c(=O)n12
28 | < 5% | CCN1CCN(c2ccc(NC(=O)c3cnc4n(c3=O)CCS4)cc2)CC1
29 | < 5% | CCN1CCN(c2ccc(NC(=O)c3cnc4cccc(C)n4c3=O)cc2)CC1
30 | 5 to 20% | CCCCc1ccc(NC(=O)c2cnc3cccc(C)n3c2=O)cc1
31 | < 5% | CCC(C)c1ccc(NC(=O)c2cnc3ccccn3c2=O)cc1 (stereo not drawn)
32 | 5 to 20% | CCCCC1CCC(NC(=O)c2cnc3cccc(C)n3c2=O)CC1 (stereo not drawn)

Same assay, conditions: read-out: Percent Gcase Activation 1 μM Test Compound

Row | Compound | activation at 1 µM
33 | CC(Cc1ccc(Cl)cc1)NC(=O)c1cnc2n(c1=O)CCS2 (stereo not drawn) | 5 to 20%
34 | CCc1ccc(CCNC(=O)c2cnc3sccn3c2=O)cc1 | 5 to 20%
35 | O=C(Nc1ccc2c(c1)CCC2)c1cnc2n(c1=O)CCS2 | 5 to 20%
36 | O=C(NC1CCCCCC1)c1cnc2n(c1=O)CCS2 | 5 to 20%
37 | CC(C)c1ccc(NC(=O)c2cnc3sccn3c2=O)nc1 | 5 to 20%
38 | O=C(NC1CCCCC12CCCCO2)c1cnc2n(c1=O)CCS2 (stereo not drawn) | < 5%
39 | CCCCC1CCC(NC(=O)c2cnc3n(c2=O)CC(C)S3)CC1 (stereo not drawn) | > 20%
40 | C#Cc1ccc(NC(=O)c2cnc3n(c2=O)CCS3)cc1 | 5 to 20%
41 | C[C@H](NC(=O)c1cnc2n(c1=O)CCS2)c1ccccc1 | 5 to 20%
42 | CC1CCC(NC(=O)c2cnc3n(c2=O)CCS3)CC1 (stereo not drawn) | 5 to 20%
43 | O=C(NC1CCc2ccccc21)c1cnc2n(c1=O)CCS2 (stereo not drawn) | 5 to 20%
44 | CCc1ccc(CNC(=O)c2cnc3sccn3c2=O)cc1 | 5 to 20%
45 | O=C(Nc1ccc2c(c1)OCCO2)c1cnc2n(c1=O)CCS2 | < 5%
46 | O=C(NC1CCCc2ccccc21)c1cnc2n(c1=O)CCS2 (stereo not drawn) | > 20%
47 | CCCCCO[C@H]1CC[C@H](NC(=O)c2cnc3n(c2=O)CCS3)CC1 | 5 to 20%
48 | CCC1CCC(NC(=O)c2cnc3sccn3c2=O)CC1 (stereo not drawn) | > 20%
49 | O=C(NC1CCCC2(CCCCO2)C1)c1cnc2n(c1=O)CCS2 (stereo not drawn) | < 5%
50 | O=C(NC1CCC2(CCCCO2)CC1)c1cnc2n(c1=O)CCS2 (stereo not drawn) | < 5%

Second part, the molecule after the results:

Row | activation at 1 µM | Compound
51 | 5 to 20% | Cc1cccc2ncc(C(=O)NC3CCOCC3)c(=O)n12
52 | < 5% | CC(C)c1ccc(NC(=O)c2cnc3sccn3c2=O)cn1
53 | 5 to 20% | CCc1ccc(NC(=O)c2cnc3ccccn3c2=O)cc1
54 | > 20% | CCc1ccc(NC(=O)c2cnc3scc(C)n3c2=O)cc1
55 | > 20% | Cc1cccc2ncc(C(=O)NC3CCC(c4ccccc4)CC3)c(=O)n12 (stereo not drawn)
56 | > 20% | Cc1cccc2ncc(C(=O)Nc3ccc(C4CCCCC4)cc3)c(=O)n12
57 | 5 to 20% | Cc1cccc2ncc(C(=O)NC3CCc4ccccc4C3)c(=O)n12 (stereo not drawn)
58 | 5 to 20% | Cc1cccc2ncc(C(=O)Nc3ccc(-n4ccnc4)cc3)c(=O)n12
59 | < 5% | Cc1cccc2ncc(C(=O)Nc3ccc4c(c3)CN(C)C4)c(=O)n12
60 | 5 to 20% | CCN1CCN(c2ccc(NC(=O)c3cnc4n(c3=O)CCS4)cc2)CC1
61 | 5 to 20% | CCN1CCN(c2ccc(NC(=O)c3cnc4cccc(C)n4c3=O)cc2)CC1
62 | > 20% | CCCCc1ccc(NC(=O)c2cnc3cccc(C)n3c2=O)cc1
63 | 5 to 20% | CCC(C)c1ccc(NC(=O)c2cnc3ccccn3c2=O)cc1 (stereo not drawn)
64 | > 20% | CCCCC1CCC(NC(=O)c2cnc3cccc(C)n3c2=O)CC1 (stereo not drawn)

Tested on: not listed separately
Assay: Compound solubility in water
Format: physicochemical
Conditions: not given

Row | Compound | solubility
65 | CC(Cc1ccc(Cl)cc1)NC(=O)c1cnc2n(c1=O)CCS2 (stereo not drawn) | 16.7 µg/mL (≈ 47.7 µM)
66 | CCc1ccc(CCNC(=O)c2cnc3sccn3c2=O)cc1 | 2.5 µg/mL (≈ 7.64 µM)
67 | O=C(Nc1ccc2c(c1)CCC2)c1cnc2n(c1=O)CCS2 | 0.3 µg/mL (≈ 0.957 µM)
68 | O=C(NC1CCCCCC1)c1cnc2n(c1=O)CCS2 | 20.8 µg/mL (≈ 70.9 µM)
69 | CC(C)c1ccc(NC(=O)c2cnc3sccn3c2=O)nc1 | 2.7 µg/mL (≈ 8.59 µM)
70 | O=C(NC1CCCCC12CCCCO2)c1cnc2n(c1=O)CCS2 (stereo not drawn) | 37.2 µg/mL (≈ 106 µM)
71 | CCCCC1CCC(NC(=O)c2cnc3n(c2=O)CC(C)S3)CC1 (stereo not drawn) | 1.2 µg/mL (≈ 3.43 µM)
72 | C#Cc1ccc(NC(=O)c2cnc3n(c2=O)CCS3)cc1 | 1.5 µg/mL (≈ 5.04 µM)
73 | C[C@H](NC(=O)c1cnc2n(c1=O)CCS2)c1ccccc1 | 37.2 µg/mL (≈ 123 µM)
74 | CC1CCC(NC(=O)c2cnc3n(c2=O)CCS3)CC1 (stereo not drawn) | 21.4 µg/mL (≈ 72.9 µM)
75 | O=C(NC1CCc2ccccc21)c1cnc2n(c1=O)CCS2 (stereo not drawn) | 17.6 µg/mL (≈ 56.2 µM)
76 | CCc1ccc(CNC(=O)c2cnc3sccn3c2=O)cc1 | 17 µg/mL (≈ 54.2 µM)
77 | O=C(Nc1ccc2c(c1)OCCO2)c1cnc2n(c1=O)CCS2 | 9.5 µg/mL (≈ 28.7 µM)
78 | O=C(NC1CCCc2ccccc21)c1cnc2n(c1=O)CCS2 (stereo not drawn) | 7.1 µg/mL (≈ 21.7 µM)
79 | CCCCCO[C@H]1CC[C@H](NC(=O)c2cnc3n(c2=O)CCS3)CC1 | 8.4 µg/mL (≈ 23 µM)
80 | CCC1CCC(NC(=O)c2cnc3sccn3c2=O)CC1 (stereo not drawn) | 4.9 µg/mL (≈ 16 µM)
81 | O=C(NC1CCCC2(CCCCO2)C1)c1cnc2n(c1=O)CCS2 (stereo not drawn) | 36 µg/mL (≈ 103 µM)
82 | O=C(NC1CCC2(CCCCO2)CC1)c1cnc2n(c1=O)CCS2 (stereo not drawn) | 29.5 µg/mL (≈ 84.4 µM)

Further lines, results first:

Row | solubility | Compound
83 | 31 µg/mL (≈ 108 µM) | Cc1cccc2ncc(C(=O)NC3CCOCC3)c(=O)n12
84 | 13.8 µg/mL (≈ 43.9 µM) | CC(C)c1ccc(NC(=O)c2cnc3sccn3c2=O)cn1
85 | 1 µg/mL (≈ 3.41 µM) | CCc1ccc(NC(=O)c2cnc3ccccn3c2=O)cc1
86 | 1.1 µg/mL (≈ 3.51 µM) | CCc1ccc(NC(=O)c2cnc3scc(C)n3c2=O)cc1
87 | 3.5 µg/mL (≈ 9.68 µM) | Cc1cccc2ncc(C(=O)NC3CCC(c4ccccc4)CC3)c(=O)n12 (stereo not drawn)
88 | 0.2 µg/mL (≈ 0.553 µM) | Cc1cccc2ncc(C(=O)Nc3ccc(C4CCCCC4)cc3)c(=O)n12
89 | 4.3 µg/mL (≈ 12.9 µM) | Cc1cccc2ncc(C(=O)NC3CCc4ccccc4C3)c(=O)n12 (stereo not drawn)
90 | 1.2 µg/mL (≈ 3.47 µM) | Cc1cccc2ncc(C(=O)Nc3ccc(-n4ccnc4)cc3)c(=O)n12
91 | 35.4 µg/mL (≈ 106 µM) | Cc1cccc2ncc(C(=O)Nc3ccc4c(c3)CN(C)C4)c(=O)n12
92 | 34.8 µg/mL (≈ 90.3 µM) | CCN1CCN(c2ccc(NC(=O)c3cnc4n(c3=O)CCS4)cc2)CC1
93 | 33.3 µg/mL (≈ 85.1 µM) | CCN1CCN(c2ccc(NC(=O)c3cnc4cccc(C)n4c3=O)cc2)CC1
94 | 0.05 µg/mL (≈ 0.149 µM) | CCCCc1ccc(NC(=O)c2cnc3cccc(C)n3c2=O)cc1
95 | 0.3 µg/mL (≈ 0.933 µM) | CCC(C)c1ccc(NC(=O)c2cnc3ccccn3c2=O)cc1 (stereo not drawn)
96 | 0.4 µg/mL (≈ 1.17 µM) | CCCCC1CCC(NC(=O)c2cnc3cccc(C)n3c2=O)CC1 (stereo not drawn)
